Data as given in ChEMBL document CHEMBL2203237, “Synthesis of C3-arylated-3-deazauridine derivatives with potent anti-HSV-1 activities” (Bioorg Med Chem Lett, 2012).
pEC50: −log10 of the molar value. Active and inactive are the calls of the source. No cut-off for these calls is given here.

Columns and labels:
[1] = Cytotoxicity against african green monkey Vero cells after 3 days by neutral red dye method; type: cell-based; conditions: chlorocebus sabaeus
[2] = system: Human alphaherpesvirus 1; test: Antiviral activity against Herpes simplex virus type 1 infected in Vero cells at 0.01 ID50/cells assessed as protection against virus-induced cytopathic effect after 3 days by neutral red dye method; type: functional, organism-based; conditions: Human alphaherpesvirus 1, Vero, 72 h
[3] = system: Human alphaherpesvirus 1; test: Antiviral activity against Herpes simplex virus type 1 infected in Vero cells at 0.001 ID50/cells assessed as destruction of cell layer after 3 days by neutral red dye method; type: functional, organism-based
[4] = system: Human alphaherpesvirus 1; test: Antiviral activity against Herpes simplex virus type 1 infected in Vero cells at 0.001 ID50/cells assessed as protection against virus-induced cytopathic effect after 3 days by neutral red dye method; type: functional, organism-based; conditions: Human alphaherpesvirus 1, Vero, 72 h
[5] = system: Human alphaherpesvirus 1; test: Antiviral activity against Herpes simplex virus type 1 infected in Vero cells at 0.001 ID50/cells assessed as change in cell morphology after 3 days by neutral red dye method; type: functional, organism-based
[6] = system: Human alphaherpesvirus 1; test: Ratio of acyclovir EC50 to compound EC50 for Herpes simplex virus type 1; type: functional

Structure (SMILES) | CC50 at 72 h [1] | pEC50 [2] | Activity [3] | pEC50 [4] | Activity [5] | ratio [6]
COc1ccc(-c2cn([C@@H]3O[C@H](CO)[C@@H](O)[C@H]3O)c(=O)cc2O)cc1 | > 200 µM | < 4.00 |  |  |  | 
CC(=O)OC[C@H]1O[C@@H](n2ccc(O)c(-c3ccccc3)c2=O)[C@H](OC(C)=O)[C@@H]1OC(C)=O | > 400 µM |  | Active | < 4.00 | Active | 
CC(=O)OC[C@H]1O[C@@H](n2ccc(O)c(CCc3ccccc3)c2=O)[C@H](OC(C)=O)[C@@H]1OC(C)=O | > 400 µM |  | Active | < 4.00 | Active | 
O=c1cc(O)c2ccccc2n1[C@@H]1O[C@H](CO)[C@@H](O)[C@H]1O | > 200 µM | < 4.00 |  |  |  | 
COc1ccc(-c2c(O)ccn([C@@H]3O[C@H](CO)[C@@H](O)[C@H]3O)c2=O)cc1OC | > 400 µM |  | Active | < 4.00 | Active | 
COc1ccc(-c2cn([C@@H]3O[C@H](COC(C)=O)[C@@H](OC(C)=O)[C@H]3OC(C)=O)c(=O)cc2O)cc1 | > 200 µM | < 4.00 |  |  |  | 
CCOc1ccc(-c2c(O)ccn([C@@H]3O[C@H](COC(C)=O)[C@@H](OC(C)=O)[C@H]3OC(C)=O)c2=O)cc1 | > 200 µM | < 4.00 |  |  |  | 
CC(=O)OC[C@H]1O[C@@H](n2cc(-c3ccccc3)c(O)cc2=O)[C@H](OC(C)=O)[C@@H]1OC(C)=O | > 200 µM | < 4.00 |  |  |  | 
COc1c(C)cc(-c2c(O)ccn([C@@H]3O[C@H](COC(C)=O)[C@@H](OC(C)=O)[C@H]3OC(C)=O)c2=O)cc1C | > 200 µM | < 4.00 |  |  |  | 
CC(C)(C)c1ccc(-c2c(O)ccn([C@@H]3O[C@H](CO)[C@@H](O)[C@H]3O)c2=O)cc1 | > 200 µM | < 4.00 |  |  |  | 
CC(=O)OC[C@H]1O[C@@H](n2ccc(O)c(-c3ccc(-c4ccccc4)cc3)c2=O)[C@H](OC(C)=O)[C@@H]1OC(C)=O | > 200 µM | 4.48 |  |  |  | 67
CC(=O)OC[C@H]1O[C@@H](n2ccc(O)c(-c3ccc(C(C)(C)C)cc3)c2=O)[C@H](OC(C)=O)[C@@H]1OC(C)=O | > 200 µM | < 4.00 |  |  |  | 
CC(=O)OC[C@H]1O[C@@H](n2ccc(O)c(-c3ccc(S(C)(=O)=O)cc3)c2=O)[C@H](OC(C)=O)[C@@H]1OC(C)=O | > 200 µM | < 4.00 |  |  |  | 
O=c1c(CCc2ccccc2)c(O)ccn1[C@@H]1O[C@H](CO)[C@@H](O)[C@H]1O | > 400 µM |  | Active | < 4.00 | Active | 
COc1cc(-c2c(O)ccn([C@@H]3O[C@H](COC(C)=O)[C@@H](OC(C)=O)[C@H]3OC(C)=O)c2=O)cc(OC)c1OC | > 200 µM | < 4.00 |  |  |  | 
O=c1c(-c2ccc(-c3ccccc3)cc2)c(O)ccn1[C@@H]1O[C@H](CO)[C@@H](O)[C@H]1O | > 200 µM | < 4.00 |  |  |  | 
CC(=O)OC[C@H]1O[C@@H](n2ccc(O)c(-c3ccc(OC(F)(F)F)cc3)c2=O)[C@H](OC(C)=O)[C@@H]1OC(C)=O | > 200 µM | < 4.00 |  |  |  | 
CC(=O)OC[C@H]1O[C@@H](n2ccc(O)c(-c3ccc(C4CCCCC4)cc3)c2=O)[C@H](OC(C)=O)[C@@H]1OC(C)=O | > 200 µM | 4.31 |  |  |  | 45
